This is an account of results in US8790735B2, “Method of preferentially reducing absorption of saturated fat and compositions” (General Mills, Inc., priority 2005, dated 2014).

In this experiment the test system is Male Wistar rats. Briefly: Excretion of radiolabeled triolein and tripalmitin in rats fed test diets. It is filed as in vivo, rat. As to the method:
As noted above, saturated fat is deemed to be complexed if at least about 5% of the available saturated fat is complexed. The amount of fat that is complexed is determined by conducting excretion studies as detailed below, and determining the amount of fat that is excreted as compared to a control sample not containing complexed fat. While some of the complexed fat may dissociate in the body, the excretion study will identify the minimum percentage of fat that is complexed.
• 13. Centrifuge the isolated aqueous layer from 11 above at 5000×g for 10 min. • 14. Filter 1 ml of the centrifuged sample supernatant with 0.45 micrometer nylon filter. Inject on to HPLC molecular sizing column. Quantify total cyclodextrin relative to a response factor developed from a standard curve of pure cyclodextrin. • 15. For Pure Fat Samples Only: Weigh remainder of supernatant sample into tared flask. Evaporate moisture to dryness. Record weight of solids. (note: net weight for non-salt containing fat samples will represent free alpha-cyclodextrin) • 16. Subtract free alpha-cyclodextrin amounts determined in 8 above from values determined in steps 15 and 16. Value equals total bound alpha-cyclodextrin. Experimental Design Male Wistar rats, 125-150 g in initial weight, 10 per group, were fed one of four diets. The diets were modifications of the AIN-93G diet [Reeves, PG (1997) Components of the AIN-93 Diets as Improvements in the AIN-76A Diet, J. Nutr. 127:838 S-841S], and thus was a purified diet. All diets were modified to contain 15% fat by weight, wherein the fat comprised 50% ^14C-triolein, an unsaturated fat that is a triglyceride of oleic acid, and 50% ^3H-tripalmitin, a saturated fat that is a triglyceride of palmitic acid. The diets were as follows:
Note that Diet 3 comprised the AIN-93G diet containing 5% α-cyclodextrin (replacing cellulose), which was added in the free unhydrated form as provided by the manufacturer (unhydrated ACD contains approximately 10% w/w moisture). Diet 4 comprised the AIN-93G diet containing 5% hydrated α-cyclodextrin (replacing cellulose), mixed with the radiolabeled fat prior to incorporation into the diet.
The animals were fed their respective diets for 7 days. A two day fecal fat collection was made during days 6 and 7 to allow for a conventional fecal fat determination (i.e. fat extraction with acidified chloroform:methanol). The animals were then fasted overnight, and presented with a 4 g meal of their respective diets containing ^14C-triolein and ^3H-tripalmitin incorporated into the diet. A fecal collection was begun four hours later, and continued until the animals were taken. Twelve hours later, the rats were killed and the small and large intestinal tracts removed. Contents of the stomach, small intestine, cecum, and colon as well as the small intestinal mucosa were collected and freeze-dried. […] After solubilization, the solution was neutralized with glacial acetic acid (to eliminate chemiluminescence), scintillation cocktail added, and the vials counted in a liquid scintillation counter using a dual label counting algorithm.
In this study, excretion is defined as all radiolabel present in the cecal contents, colon contents, and feces. Excretion is calculated in this manner as there is no absorption of triacylglycerols in the large intestine; thus, any radiolabel present in the cecal or colon contents cannot be absorbed and is thus destined to be excreted. […]

The mark [1] stands for this setting: 5% in AIN-93G diet with 15% fat, fed 7 days, then 4 g radiolabeled meal, FIG. 1.

Each structure is given as a SMILES string. Entries after “also recorded” stand apart in the source; their conditions may differ.

For `OC[C@H]1O[C@@H]2O[C@H]3[C@H](O)[C@@H](O)[C@@H](O[C@H]4[C@H](O)[C@@H](O)[C@@H](O[C@H]5[C@H](O)[C@@H](O)[C@@H](O[C@H]6[C@H](O)[C@@H](O)[C@@H](O[C@H]7[C@H](O)[C@@H](O)[C@@H](O[C@H]1[C@H](O)[C@H]2O)O[C@@H]7CO)O[C@@H]6CO)O[C@@H]5CO)O[C@@H]4CO)O[C@@H]3CO` [α-cyclodextrin, alpha-cyclodextrin], under setting [1], the “triolein excretion (radiolabel in cecal contents, colon contents and feces)” value is reported as “no or only a modest effect”; the “tripalmitin excretion (radiolabel in cecal contents, colon contents and feces)” value was “dramatically increased; also recorded: dramatic effect”. For the same molecule, the “triolein excretion (radiolabel in cecal contents, colon contents and feces)” value (5% in AIN-93G diet with 15% fat, fed 7 days, then 4 g radiolabeled meal, FIG. 1, listed as α-Cyclodextrin) was “no affect”. Further, the “ratio of excretion of tripalmitin to triolein” value (calculated from FIG. 1 values (radiolabel excreted as proportion of radiolabel consumed), FIG. 2) is “favored tripalmitin excretion”. For the same molecule, the fat excretion result (dietary, 5% in diet, rats) is “does indeed increase fat excretion”.
